# Tests used:
# 2nd instar WCRW = experiment: Residual activity of treated Midwestern soil kept in lab at 15% moisture (Example 5); format: in vivo, Diabrotica virgifera virgifera
# Description: In order to induce seed germination prior to test initiation, corn seed was submerged in water for 12 h and then placed between layers of moistened paper towel for 72 h. Plastic Dart® containers (1 oz/30 ml) were utilized for the assay. Treatments included tetraniliprole Test Formula according to the present invention, Capture LFR® (bifenthrin), and Rugby® (cadusafos). A 60 g ai/ha foliar rate applied at a volume of 30GPA equates to 213.8 ppm. If this application rate was condensed into a 6″ T-band application that assumed a 30″ row spacing, the ppm rate would increase to 1069 ppm (213.8 ppm×5). Five rates were selected for the experimental treatment (Test Formula) and compared to a single rate of two standard treatments (Capture LFR and Rugby). Treatment solutions (Table 4) were mixed into dry, sifted, Midwestern soil, from Wyoming, Illinois, by adding 300mLs of solution into 2000 g of soil and equates to approximate 15% soil moisture value; soil clumped when pinched.
# An estimated 0.75 cm of treated soil was placed into the bottom of each container, one germinated corn seed was placed onto the soil, and then the arenas were capped with a lid until rootworms were infested. Corn was covered with approximately 1.75 cm of treated soil. Using a fine tipped paint brush, 5 WCRW larvae (2nd instar) were transferred onto the soil of each replicate and then capped. There were 8 replicates and 40 larvae per treatment. Arenas containing soil, corn, and larvae were transferred into the Insectary room (≈23° C., 0 L:24D) and evaluated 6 days later for the presence of living larvae. Larvae not recovered within each arena were considered dead. Additional treated soil was maintained within a 5 gallon bucket, covered with aluminum […], and weights recorded. Additional water was added every Monday in order to maintain a 15% soil moisture level.
# All mortality data was analyzed by ANOVA/GLM with an alpha of 0.1 (Minitab 16.0).
# WCRW larvae = experiment: Residual activity of treated soil maintained outdoors, water pH 6, 7, 8 (Example 4); format: in vivo, Diabrotica virgifera virgifera
# Description: A solution of the Test Formula A was prepared by making dilutions in water to form a solution. Dry, Midwestern soil was brought up to 15% moisture with treatment solutions (Table 5). Buckets of treated soil were carted outside daily between Monday and Friday and exposed to direct sunlight. Carts were not wheeled out on days that forecasted precipitation. At the end of each day, soil buckets were brought back into the laboratory, weighed, the appropriate amount of water added to the soil to bring it back up to 15% moisture, and covered overnight; daily records of weights and amount of water added to each bucket was recorded.
# At 30DAT, 42DAT, 57DAT, and 85DAT, […] WCRW larvae were infested into treated soil containing and germinating corn seed and evaluated 6 days after infestation (6DAI) for percent control and larval stunting. There were 6 replicates per infestation date with 5 larvae per replicate (n=30). Treatments applied to dry Midwestern soil for assessment of residual WCRW included Test Formula at 67, 267, and 1,069 ppm, Capture LFR at 1988.5 and 3,977 ppm.
substance,measurement,setting,value
tetraniliprole,size of larvae,"2nd instar WCRW; 3.75 g ai/ha, 0 DAT",approximately half the size as the untreated check
same,control to 2nd instar WCRW larvae at 64DAT,"2nd instar WCRW; 15, 30, 60 g ai/ha, lab soil at 15% moisture",≥ 95%
same,larval stunting compared to the untreated check,"2nd instar WCRW; all treated soils, 0 DAT",Stunted larvae were detected
same,protection to the root and shoot system of corn,"2nd instar WCRW; all treated soils, 0 DAT",evident
same,2nd instar WCRW: % Mortality 0DAT,"2nd instar WCRW; lab soil 15% moisture, 66.8 ppm (3.75 g ai/ha in-furrow), after 144 h within treated soil",< 80%
same,2nd instar WCRW: % Mortality 0DAT,"2nd instar WCRW; lab soil 15% moisture, 133.6 ppm (7.5 g ai/ha in-furrow), after 144 h within treated soil",< 80%
same,2nd instar WCRW: % Mortality 0DAT,"2nd instar WCRW; lab soil, 534.5 ppm (30 g ai/ha in-furrow), after 144 h",97.5%
same,2nd instar WCRW: % Mortality 0DAT,"2nd instar WCRW; lab soil, 1069 ppm (60 g ai/ha in-furrow), after 144 h",97.5%
same,control to WCRW larvae,"WCRW larvae; 67 ppm (3.75 g ai/ha), soil kept outdoors, water pH 6, 7 or 8",≥ 87%
same,state of surviving larvae compared to the non-treated check,"WCRW larvae; 67 ppm, 57 DAT and 85 DAT",severely stunted

# Source: patent US11793199B2, “Formulations and methods for controlling rootworm larvae” (FMC Corporation, priority 2016, dated 2023)
